Measurements taken from US20120184562A1, “1,6- AND 1,8-NAPHTHYRIDINES” (priority 2011, published 2012).

What was measured:
[1] = target: T1, Human DYRK1B (Homo sapiens, UniProt Q9Y463); test: DYRK1B Kinase TR-FRET (IMAP-Tb) Assay; type: biochemical; settings: for inhibition at 10 µM: % inhibition at 10 μM test compound concentration, where IC50 not determined; for IC50: TR-FRET (IMAP-Tb), ATP 70 μM, 37° C., 60 minutes, average of multiple runs, read-out: Enzyme IC50 (μM) DYRK1B
T1 construct: purchased Invitrogen PR8350B (former PV4649)
T1 sequence (Q9Y463 whole entry): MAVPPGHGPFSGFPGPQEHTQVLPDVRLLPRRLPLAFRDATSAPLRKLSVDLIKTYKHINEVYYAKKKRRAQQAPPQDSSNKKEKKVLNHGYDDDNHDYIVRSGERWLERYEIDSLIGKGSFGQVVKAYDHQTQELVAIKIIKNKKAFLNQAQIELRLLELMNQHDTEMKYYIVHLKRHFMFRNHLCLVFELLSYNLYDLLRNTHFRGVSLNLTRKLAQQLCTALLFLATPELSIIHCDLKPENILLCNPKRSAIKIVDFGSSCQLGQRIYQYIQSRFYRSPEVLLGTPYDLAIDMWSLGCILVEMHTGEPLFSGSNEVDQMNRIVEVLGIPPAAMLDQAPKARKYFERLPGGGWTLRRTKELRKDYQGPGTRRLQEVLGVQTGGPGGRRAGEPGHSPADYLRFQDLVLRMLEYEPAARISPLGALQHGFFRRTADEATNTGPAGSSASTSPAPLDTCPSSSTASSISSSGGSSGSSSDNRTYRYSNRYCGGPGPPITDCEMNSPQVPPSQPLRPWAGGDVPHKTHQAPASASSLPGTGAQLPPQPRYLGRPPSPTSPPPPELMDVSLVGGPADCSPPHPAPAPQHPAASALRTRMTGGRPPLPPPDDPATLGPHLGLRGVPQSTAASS
Excerpt: DYRK1B Kinase TR-FRET (IMAP-Tb) Assay The kinase TR-FRET (IMAP-Tb) assay uses a fluorescence labeled substrate peptide in the kinase reaction. Upon phosphorylation by the kinase, phosphopeptide is produced, which will be detected by the binding solution provided in IMAP TR-FRET binding kit. After the completion of the kinase reaction, the reaction will be stopped by adding the binding solution containing terbium tracer. This tracer is immobilized on the surface of the IMAP beads, which also contain metal ions on the beads that bind to the phospho-groups of the products. Thus the phosphorylated product of the reaction can enter into close proximity to the tracer, producing resonance energy transfer. Due to the long lifetime of terbium (Tb) fluorescence the detection can be run in time resolved mode, which virtually eliminates fluorescence interference from assay components or compounds. The TR-FRET signal measurement from this assay, given as an IC50 measurement, is a measure of a test compound's ability to interfere with the phosphorylation of the peptide substrate, that is it inhibits the phosphorylation of the substrate peptide by DYRK1B, and is thus a measure of the test compound's ability to inhibit the activity of DYRK1B. […] Human DYRK1B: from Invitrogen. Part #PR8350B (former PV4649) • 2. Substrate Peptide: in-house synthesized: RRRFRPASPLRGPPK • 3. IMAP TR-FRET IPP Explorer Kit: from Molecular Devices. Part #R8157 • 4. Kinase Assay Buffer (KAB): 10 mM HEPES pH 7.0, 50 mM NaCl, 5 mM MgCl2, 1 mM DTT, 1 mM NaVO4, 200 μg/mL BSA (0.02%) • 5. Assay Plate: Remp polypropylene clear 384-well microplate. Cat#23490-102 • 6. Detection Plate: Costa black 384-well microplate. Cat #3710 Assay Procedure: This assay was performed as follows: • 1. Transfer 1.5 μL of 20× compound solution to each well of an assay plate. • 2. Add to each well 22.5 μL of KAB Buffer. • 3. Add to each well 3 μL of the solution of DYRK1B and ATP. […] Add to each well 3 μL of the substrate peptide. The assay concentration is 1.0 μM • 5. Incubate the assay plates at 37° C. for 60 minutes. • 6. Add 18 μL of Detection Solution (1:800 diluted Progress bead stock, 1:400 diluted Tb stock, 80% Buffer A, and 20% Buffer B) into each well of detection plates. • 7. Transfer 6 μL of assay solution from the assay plate to the detection plate. • 8. Shake detection plates for 30 minutes. • 9. Read plates in Envision with wavelength set at excitation 340 nm for Tb, emission 490 nm, and […] 520 nm. • 10. Calculation: TR-FRET Signal=(Reading at […]/Reading at 490 nM)×2000000

[2] = target: T2, Human DYRK1A (Homo sapiens, UniProt Q13627); test: DYRK1A Kinase TR-FRET (IMAP-Tb) Assay; type: biochemical; settings: for inhibition at 10 µM: % inhibition at 10 μM test compound concentration, where IC50 not determined, read-out: % inhibition DYRK1A (printed in the Enzyme IC50 DYRK1A column); for IC50: TR-FRET (IMAP-Tb), ATP 70 μM, 37° C., 60 minutes, average of multiple runs, read-out: Enzyme IC50 (μM) DYRK1A
T2 construct: purchased Invitrogen PV3997
Excerpt: DYRK1A Kinase TR-FRET (IMAP-Tb) Assay
The kinase TR-FRET (IMAP-Tb) assay uses a fluorescence labeled substrate peptide in the kinase reaction. Upon phosphorylation by the kinase, phosphopeptide is produced, which will be detected by the binding solution provided in IMAP TR-FRET binding kit. After the completion of the kinase reaction, the reaction will be stopped by adding the binding solution containing terbium tracer. This tracer is immobilized on the surface of the IMAP beads, which also contain metal ions on the beads that bind to the phospho-groups of the products. Thus the phosphorylated product of the reaction can enter into close proximity to the tracer, producing resonance energy transfer. Due to the long lifetime of terbium (Tb) fluorescence the detection can be run in time resolved mode, which virtually eliminates fluorescence interference from assay components or compounds.
The TR-FRET signal measurement from this assay, given as an IC50 measurement, is a measure of a test compound's ability to interfere with the phosphorylation of the peptide substrate, that is it inhibits the phosphorylation of the substrate peptide by DYRK1A, and is thus a measure of the test compound's ability to inhibit the activity of DYRK1A.
• 1. Human DYRK1A: from Invitrogen. Part #PV3997 • 2. Substrate Peptide: […] • 3. IMAP TR-FRET IPP Explorer Kit: from Molecular Devices. Part #R8157 • 4. Kinase Assay Buffer (KAB): 10 mM HEPES pH 7.0, 50 mM NaCl, 5 mM MgCl2, 1 mM DTT, 1 mM NaVO4, 200 μg/mL BSA (0.02%) • 5. Assay Plate: Remp polypropylene clear 384-well microplate. […] Detection Plate: Costa black 384-well microplate. […] Transfer 1.5 μL of 20× compound solution to each well of an assay plate. • 2. Add to each well 22.5 μL of KAB Buffer. • 3. Add to each well 3 μL of the solution of DYRK1A and ATP. […] Add to each well 3 μL of the substrate peptide. The assay concentration is 1.0 μM • 5. Incubate the assay plates at 37° C. for 60 minutes. • 6. Add 18 μL of Detection Solution (1:800 diluted Progress bead stock, 1:400 diluted Tb stock, 80% Buffer A, and 20% Buffer B) into each well of detection plates. • 7. Transfer 6 μL of assay solution from the assay plate to the detection plate. • 8. Shake detection plates for 30 minutes. • 9. Read plates in Envision with wavelength set at excitation 340 nm for Tb, emission 490 nm, and […].

SMILES | inhibition at 10 µM [1] | inhibition at 10 µM [2] | IC50 [1] | IC50 [2]
COc1cc2[nH]c(=O)c(C(=O)Nc3cc(C(=O)NCc4cccs4)ccc3Cl)cc2cn1 [Example 42, 7-Methoxy-2-oxo-1,2-dihydro-[1,6]naphthyridine-3-carboxylic acid {2-chloro-5-[(thiophen-2-ylmethyl)-carbamoyl]-phenyl}-amide] | 41% | 27% | – | –
COc1cc2[nH]c(=O)c(C(=O)Nc3cc(C(=O)NCc4cccc(Cl)c4)ccc3C)cc2cn1 [Example 35, 7-Methoxy-2-oxo-1,2-dihydro-[1,6]naphthyridine-3-carboxylic acid [5-(3-chloro-benzylcarbamoyl)-2-methyl-phenyl]-amide] | 35% | 45% | – | –
COc1ccc2cc(C(=O)Nc3cc(C(=O)NC(CCN)c4ccccc4)ccc3C)c(=O)[nH]c2n1 (centres unmarked) [Example 100, N-(5-(3-Amino-1-phenylpropylcarbamoyl)-2-methylphenyl)-7-methoxy-2-oxo-1,2-dihydro-1,8-naphthyridine-3-carboxamide] | – | – | 0.0158 µM | 0.0162 µM
COc1cc2[nH]c(=O)c(C(=O)Nc3cc(C(=O)NCc4ccccc4)ccc3Cl)cc2cn1 [Example 32, 7-Methoxy-2-oxo-1,2-dihydro-[1,6]naphthyridine-3-carboxylic acid (5-benzylcarbamoyl-2-chloro-phenyl)-amide] | 19% | 23% | – | –
COc1cc2[nH]c(=O)c(C(=O)Nc3cc(C(=O)NCc4ccc(Cl)cc4)ccc3C)cc2cn1 [Example 36, 7-Methoxy-2-oxo-1,2-dihydro-[1,6]naphthyridine-3-carboxylic acid [5-(4-chloro-benzylcarbamoyl)-2-methyl-phenyl]-amide] | – | – | > 10 µM | > 10 µM
COc1cc2[nH]c(=O)c(C(=O)Nc3cc(C(=O)NCc4ccccc4Cl)ccc3C)cc2cn1 [Example 34, 7-Methoxy-2-oxo-1,2-dihydro-[1,6]naphthyridine-3-carboxylic acid [5-(2-chloro-benzylcarbamoyl)-2-methyl-phenyl]-amide] | 28% | 45% | – | –
COc1cc2[nH]c(=O)c(C(=O)Nc3cc(C(=O)NCc4ccccc4Cl)ccc3Cl)cc2cn1 [Example 39, 7-Methoxy-2-oxo-1,2-dihydro-[1,6]naphthyridine-3-carboxylic acid [2-chloro-5-(2-chloro-benzylcarbamoyl)-phenyl]-amide] | – | – | 7.22 µM | 0.63 µM
COc1cc2[nH]c(=O)c(C(=O)Nc3cc(C(=O)NCc4ccc(Cl)cc4)ccc3Cl)cc2cn1 [Example 41, 7-Methoxy-2-oxo-1,2-dihydro-[1,6]naphthyridine-3-carboxylic acid [2-chloro-5-(4-chloro-benzylcarbamoyl)-phenyl]-amide] | – | – | > 10 µM | > 10 µM
COc1ccc2cc(C(=O)Nc3cc(C(=O)NCc4ccccc4)ccc3Cl)c(=O)[nH]c2n1 [Example 94, N-(5-(Benzylcarbamoyl)-2-chlorophenyl)-7-methoxy-2-oxo-1,2-dihydro-1,8-naphthyridine-3-carboxamide] | – | – | 0.079 µM | 0.05 µM
COC(=O)c1ccc(C)c(NC(=O)c2cc3ccc(N4CCN(C)CC4)nc3[nH]c2=O)c1 [Example 87, 4-Methyl-3-{[7-(4-methyl-piperazin-1-yl)-2-oxo-1,2-dihydro-[1,8]naphthyridine-3-carbonyl]-amino}-benzoic acid methyl ester] | – | – | 1.31 µM | 0.915 µM
COC(=O)c1ccc(C)c(NC(=O)c2cc3cnc(N4CCN(C)CC4)cc3[nH]c2=O)c1 [Example 74, 4-Methyl-3-{[7-(4-methyl-piperazin-1-yl)-2-oxo-1,2-dihydro-[1,6]naphthyridine-3-carbonyl]-amino}-benzoic acid methyl ester] | – | – | 3.55 µM | 0.96 µM
COc1ccc2cc(C(=O)Nc3cc(C(=O)NCc4ccccc4)ccc3C)c(=O)[nH]c2n1 [Example 98, N-(5-(Benzylcarbamoyl)-2-methylphenyl)-7-methoxy-2-oxo-1,2-dihydro-1,8-naphthyridine-3-carboxamide] | – | – | 0.69 µM | 0.79 µM
COC(=O)c1ccc(C)c(NC(=O)c2cc3ccc(OC)nc3[nH]c2=O)c1 [Example 89, 3-[(7-Methoxy-2-oxo-1,2-dihydro-[1,8]naphthyridine-3-carbonyl)-amino]-4-methyl-benzoic acid methyl ester] | 47% | – | – | 0.125 µM
COC(=O)c1ccc(C)c(NC(=O)c2cc3cnc(OC)cc3[nH]c2=O)c1 [Example 28, 3-[(7-Methoxy-2-oxo-1,2-dihydro-[1,6]naphthyridine-3-carbonyl)-amino]-4-methyl-benzoic acid methyl ester] | – | 24% | > 10 µM | –
COc1cc2[nH]c(=O)c(C(=O)Nc3cc(C(=O)NCc4cccc(Cl)c4)ccc3Cl)cc2cn1 [Example 40, 7-Methoxy-2-oxo-1,2-dihydro-[1,6]naphthyridine-3-carboxylic acid [2-chloro-5-(3-chloro-benzylcarbamoyl)-phenyl]-amide] | – | – | – | 0.051 µM
